Legend:
Format in all cases: in vivo
[1] = system: redroot pigweed (Amaranthus retroflexus, AMARE); experiment: Pre-emerge test, greenhouse herbicide activity screening; conditions: phytotoxicity rating 0-100, 14 days after application
How it was run: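 Rating: 0–100 visual injury, 14 DAA. Application: acetone, 187 l/ha, 15–1000 g ai/ha, flat-fan track sprayer with nozzle 40–45 cm above soil or canopy. Post-emerge runs used 0.25% v/v surfactant on 2–3 leaf plants.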

[2] = system: barnyardgrass (Echinochloa crus-galli, ECHCG); experiment: as above; conditions: phytotoxicity rating 0-100, 14 days after application
How it was run: (§1)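 Fourteen days after spraying, crop and weed injury was graded visually from 0, no effect, to 100, every plant dead. Test substances were dissolved in acetone and applied at 15–1000 g ai/ha with a flat-fan nozzle. Application was either pre-emergence, one day after sowing, or post-emergence at the 2–3 leaf stage.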

[3] = system: common ragweed (Ambrosia artemisizfolia L., AMBEL); experiment: as above; conditions: phytotoxicity rating 0-100, 14 days after application
How it was run: as §1

[4] = system: green foxtail (Setaria viridis, SETVI); experiment: as above; conditions: phytotoxicity rating 0-100, 14 days after application
How it was run: as §1

[5] = system: ivyleaf morningglory (Ipomoea hederacea, IPOHE); experiment: as above; conditions: phytotoxicity rating 0-100, 14 days after application
How it was run: as §1

[6] = system: johnsongrass (Sorghum halepense, SORHA); experiment: as above; conditions: phytotoxicity rating 0-100, 14 days after application
How it was run: as §1

[7] = system: lambsquarters (Chenopodium album, CHEAL); experiment: as above; conditions: phytotoxicity rating 0-100, 14 days after application
How it was run: as §1

[8] = system: large crabgrass (Digitaria sanguinalis, DIGSA); experiment: as above; conditions: phytotoxicity rating 0-100, 14 days after application
How it was run: as §1

[9] = system: sicklepod (Cassia obtusifolia, CASOB); experiment: as above; conditions: phytotoxicity rating 0-100, 14 days after application
How it was run: as §1

[10] = system: velvetleaf (Abutilon theophrasti, ABUTH); experiment: as above; conditions: phytotoxicity rating 0-100, 14 days after application
How it was run: as §1

[11] = system: field corn (Zea mays L., var. Dekalb 535, CORN); experiment: Pre-emerge test, crop safety; conditions: crop damage rating 0-100, 14 days after application
How it was run: (§2)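 Compounds in acetone were track-sprayed at 187 l/ha, 15–1000 g ai/ha, onto sandy loam pots. Pre-emerge seeds were sown one day before spraying, with surface watering afterwards. Post-emerge plants were at the 2–3 leaf stage and sprayed with 0.25% v/v non-ionic surfactant. Injury was rated 0–100 at 14 days.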

[12] = system: upland rice (Oryza sp., var. Tebonnet, RICE); experiment: Pre-emerge test, crop safety; conditions: crop damage rating 0-100, 14 days after application
How it was run: as §2

[13] = system: barnyardgrass (Echinochloa crus-galli, ECHCG); experiment: Post-emerge test, greenhouse herbicide activity screening; conditions: post-emerge, 14 days after application, rating scale 0-100
How it was run: (§3)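 Sandy loam pots; pre-emerge: sown 1 d pre-spray, surface-watered after, then bottom-watered. Post-emerge: sown 8–21 d before, 2–3 leaf stage, + 0.25% v/v NIS, bottom-watered. Acetone, 187 l/ha track spray, 15–1000 g ai/ha. 0–100 injury score, day 14.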

[14] = system: common ragweed (Ambrosia artemisizfolia L., AMBEL); experiment: as above; conditions: post-emerge, 14 days after application, rating scale 0-100
How it was run: as §3

[15] = system: green foxtail (Setaria viridis, SETVI); experiment: as above; conditions: post-emerge, 14 days after application, rating scale 0-100
How it was run: as §3

[16] = system: ivyleaf morningglory (Ipomoea hederacea, IPOHE); experiment: as above; conditions: post-emerge, 14 days after application, rating scale 0-100
How it was run: as §3

[17] = system: johnsongrass (Sorghum halepense, SORHA); experiment: as above; conditions: post-emerge, 14 days after application, rating scale 0-100
How it was run: as §3

[18] = system: lambsquarters (Chenopodium album, CHEAL); experiment: as above; conditions: post-emerge, 14 days after application, rating scale 0-100
How it was run: as §3

[19] = system: large crabgrass (Digitaria sanguinalis, DIGSA); experiment: as above; conditions: post-emerge, 14 days after application, rating scale 0-100
How it was run: as §3

[20] = system: redroot pigweed (Amaranthus retroflexus, AMARE); experiment: as above; conditions: post-emerge, 14 days after application
How it was run: as §3

[21] = system: sicklepod (Cassia obtusifolia, CASOB); experiment: as above; conditions: post-emerge, 14 days after application, rating scale 0-100
How it was run: as §3

[22] = system: velvetleaf (Abutilon theophrasti, ABUTH); experiment: as above; conditions: post-emerge, 14 days after application, rating scale 0-100
How it was run: as §3

[23] = system: field corn (Zea mays L., var. Dekalb 535, CORN); experiment: Post-emerge test, crop safety; conditions: post-emerge, 14 days after application, rating scale 0-100
How it was run: as §1

[24] = system: upland rice (Oryza sp., var. Tebonnet, RICE); experiment: Post-emerge test, crop safety; conditions: post-emerge, 14 days after application, rating scale 0-100
How it was run: as §1

Cn1c(C(F)(F)F)cc(=O)n(-c2c(F)cc(Cl)c(O)c2NC(=O)c2ccc3ccccc3c2)c1=O [Compound 2-194, 2-(2,4-chloro-6-fluoro-3-hydroxy-2-naphthoylamidophenyl)-1-methyl-6-trifluoromethyl-2,4(1H, 3H)-pyrimidinedione]
85: Pre-emerge Herbicidal Activity CHEAL ([7]; 250 g ai/ha)
5: phytotoxicity rating CORN (crop damage) ([23]; 63 g ai/ha) | phytotoxicity rating CORN (crop damage) ([23]; 250 g ai/ha)
70: phytotoxicity rating CASOB ([21]; 250 g ai/ha)
30: phytotoxicity rating RICE (crop damage) ([24]; 63 g ai/ha)
10: Pre-emerge Herbicidal Activity DIGSA ([8]; 250 g ai/ha) | Pre-emerge Herbicidal Activity CASOB ([9]; 250 g ai/ha) | Pre-emerge Herbicidal Activity RICE ([12]; 250 g ai/ha) | phytotoxicity rating ECHCG ([13]; 250 g ai/ha) | phytotoxicity rating SORHA ([17]; 250 g ai/ha)
95: phytotoxicity rating AMBEL ([14]; 63 g ai/ha) | phytotoxicity rating IPOHE ([16]; 63 g ai/ha) | phytotoxicity rating ABUTH ([22]; 63 g ai/ha)
75: Pre-emerge Herbicidal Activity AMARE ([1]; 63 g ai/ha)
50: phytotoxicity rating CASOB ([21]; 63 g ai/ha)
99: phytotoxicity rating IPOHE ([16]; 250 g ai/ha) | phytotoxicity rating AMARE ([20]; 63 g ai/ha, rating scale 0-100 (0 no damage, 100 complete death)) | phytotoxicity rating AMARE ([20]; 250 g ai/ha, rating scale 0-100)
40: Pre-emerge Herbicidal Activity CHEAL ([7]; 63 g ai/ha) | phytotoxicity rating RICE (crop damage) ([24]; 250 g ai/ha)
90: Pre-emerge Herbicidal Activity ABUTH ([10]; 63 g ai/ha) | phytotoxicity rating AMBEL ([14]; 250 g ai/ha) | phytotoxicity rating CHEAL ([18]; 63 g ai/ha)
100: Pre-emerge Herbicidal Activity AMARE ([1]; 250 g ai/ha) | Pre-emerge Herbicidal Activity ABUTH ([10]; 250 g ai/ha) | phytotoxicity rating CHEAL ([18]; 250 g ai/ha) | phytotoxicity rating ABUTH ([22]; 250 g ai/ha)
20: Pre-emerge Herbicidal Activity SETVI ([4]; 250 g ai/ha) | Pre-emerge Herbicidal Activity IPOHE ([5]; 250 g ai/ha) | phytotoxicity rating SETVI ([15]; 63 g ai/ha) | phytotoxicity rating SETVI ([15]; 250 g ai/ha) | phytotoxicity rating DIGSA ([19]; 250 g ai/ha)
0: Pre-emerge Herbicidal Activity ECHCG ([2]; 63 g ai/ha) | Pre-emerge Herbicidal Activity ECHCG ([2]; 250 g ai/ha) | Pre-emerge Herbicidal Activity AMBEL ([3]; 63 g ai/ha) | Pre-emerge Herbicidal Activity AMBEL ([3]; 250 g ai/ha) | Pre-emerge Herbicidal Activity SETVI ([4]; 63 g ai/ha) | Pre-emerge Herbicidal Activity IPOHE ([5]; 63 g ai/ha) | Pre-emerge Herbicidal Activity SORHA ([6]; 63 g ai/ha) | Pre-emerge Herbicidal Activity SORHA ([6]; 250 g ai/ha) | Pre-emerge Herbicidal Activity DIGSA ([8]; 63 g ai/ha) | Pre-emerge Herbicidal Activity CASOB ([9]; 63 g ai/ha) | Pre-emerge Herbicidal Activity CORN ([11]; 63 g ai/ha) | Pre-emerge Herbicidal Activity CORN ([11]; 250 g ai/ha) | Pre-emerge Herbicidal Activity RICE ([12]; 63 g ai/ha) | phytotoxicity rating ECHCG ([13]; 63 g ai/ha) | phytotoxicity rating SORHA ([17]; 63 g ai/ha) | phytotoxicity rating DIGSA ([19]; 63 g ai/ha)

Reference: patent US6355799B1, “Substituted benzene compounds, process for their preparation, and herbicidal and defoliant compositions containing them” (ISK Americas Incorporated, priority 1997, dated 2002)
